From patent US9556165B2 (priority 2012, dated 2017)
Converted amounts (≈) assume the structure as drawn. Read-outs that look alike come from different tables or passages of the source.

Legend:
Type in all cases: cell-based
E. coli ATCC25922 = test: MIC determination, broth microdilution (CLSI); conditions: for MIC: Escherichia coli, ATCC25922, strain 1
K. pneumoniae 60 = test: MIC determination, broth microdilution (CLSI); conditions: Klebsiella pneumoniae, 60, strain 2
E. cloacae 34654 = test: MIC determination, broth microdilution (CLSI); conditions: Enterobacter cloacae, 34654, strain 3
C. freundii K21/3034 = test: MIC determination, broth microdilution (CLSI); conditions: Citrobacter freundii, K21/3034, strain 4
M. morganii 126/3048 = test: MIC determination, broth microdilution (CLSI); conditions: Morganella morganii, 126/3048, strain 5
P. aeruginosa PAO1 = test: MIC determination, broth microdilution (CLSI); conditions: Pseudomonas aeruginosa, PAO1, strain 6
[1] = tested on: P. aeruginosa 2297 (AmpC wt); test: MIC determination, broth microdilution (CLSI); conditions: Pseudomonas aeruginosa, strain 7
A. baumannii ATCC15308 = test: MIC determination, broth microdilution (CLSI); conditions: Acinetobacter baumannii, ATCC15308, strain 9
S. aureus 133 = test: MIC determination, broth microdilution (CLSI)
H. influenzae ATCC 49247 = test: MIC determination, broth microdilution (CLSI); conditions: Haemophilus influenzae, ATCC49247, strain 12; broth microdilution; read-out: MIC strain 12 (H. influenzae ATCC 49247)
S. pneumoniae 113 = test: MIC determination, broth microdilution (CLSI); conditions: Streptococcus pneumoniae, 113, strain 13; broth microdilution; read-out: MIC strain 13 (S. pneumoniae 113)
B. fragilis 6688 = test: MIC determination, broth microdilution (CLSI); conditions: Bacteroides fragilis, 6688, strain 15; broth microdilution; read-out: MIC strain 15 (B. fragilis 6688)
E. coli J62 = test: MIC determination, broth microdilution (CLSI); conditions: Escherichia coli, J62, strain 17; broth microdilution; read-out: MIC strain 17 (E. coli J62)
E. coli J62-TEM-3 = test: MIC determination, broth microdilution (CLSI); conditions: Escherichia coli, J62TEM3, read-out: MIC strain 18 (E. coli J62-TEM-3), strain 18; broth microdilution
Bacteria = test: MIC determination in combination with β-lactamase inhibitors (constant 4 μg/mL)
[2] = tested on: P. aeruginosa 2297-con (AmpC derepressed); test: MIC determination, broth microdilution (CLSI); conditions: Pseudomonas aeruginosa, read-out: strain 8 MIC, strain 8
[3] = Staphylococcus aureus, 133, strain 11, read-out: strain 11 MIC
[4] = Staphylococcus aureus, 133, strain 14, broth microdilution, read-out: MIC strain 14 (S. aureus 133)

Row | SMILES | MIC (E. coli ATCC25922) [mg/L] | MIC (K. pneumoniae 60) [mg/L] | MIC (E. cloacae 34654) [mg/L] | MIC (C. freundii K21/3034) [mg/L] | MIC (M. morganii 126/3048) [mg/L] | MIC (P. aeruginosa PAO1) [mg/L] | MIC [1] [mg/L] | MIC (A. baumannii ATCC15308) [mg/L] | MIC (S. aureus 133; [3]) [mg/L] | MIC (S. aureus 133; [4]) [mg/L] | MIC (H. influenzae ATCC 49247) [mg/L] | MIC (S. pneumoniae 113) [mg/L] | MIC (B. fragilis 6688) [mg/L] | MIC (E. coli J62) [mg/L] | MIC (E. coli J62-TEM-3) [mg/L] | MIC strain 19 (E. coli J62-TEM-3 + 4 μg/mL clavulanic acid) (Bacteria) [mg/L] | MIC strain 20 (E. coli J62-TEM-3 + 4 μg/mL sulbactam) (Bacteria) [mg/L] | MIC strain 21 (E. coli J62-TEM-3 + 4 μg/mL tazobactam) (Bacteria) [mg/L] | strain 1 MIC (E. coli ATCC25922; strain 1) [mg/L] | MIC [2] [mg/L]
1 | C[C@H]1[C@H](NC(=O)/C(=N\OCCOc2ccc(C(=N)NCCOC=O)cc2)c2csc(N)n2)C(=O)N1S(=O)(=O)O [Example 70, (2S,3S)-3-{[(2Z)-2-(2-Amino-1,3-thiazol-4-yl)-2-{[2-(4-{N-[2-(formyloxy)ethyl]carbamimidoyl}phenoxy)ethoxy]imino}acetyl]amino}-2-methyl-4-oxoazetidine-1-sulfonic acid] | 0.125 (≈ 0.214 µM) | 0.25 (≈ 0.428 µM) | 0.25 (≈ 0.428 µM) | 0.125 (≈ 0.214 µM) | 0.125 (≈ 0.214 µM) | 4 (≈ 6.85 µM) | 4 (≈ 6.85 µM) | 2 (≈ 3.43 µM) | 0.125 (≈ 0.214 µM) | 8 (≈ 13.7 µM) | 0.125 (≈ 0.214 µM) | 0.5 (≈ 0.857 µM) | 16 (≈ 27.4 µM) | 0.25 (≈ 0.428 µM) | 16 (≈ 27.4 µM) | 0.25 | 0.25 | 0.25 | – | –
2 | C[C@H]1[C@H](NC(=O)/C(=N\OCCOc2cc(C(=N)N)n(C)n2)c2csc(N)n2)C(=O)N1S(=O)(=O)O [Example 72, (2S,3S)-3-{[(2Z)-2-(2-Amino-1,3-thiazol-4-yl)-2-({2-[(5-carbamimidoyl-1-methyl-1H-pyrazol-3-yl)oxy]ethoxy}imino)acetyl]amino}-2-methyl-4-oxoazetidine-1-sulfonic acid] | 0.5 (≈ 0.97 µM) | 0.25 (≈ 0.485 µM) | 1 (≈ 1.94 µM) | 0.5 (≈ 0.97 µM) | 0.25 (≈ 0.485 µM) | 8 (≈ 15.5 µM) | 8 (≈ 15.5 µM) | 4 (≈ 7.76 µM) | 0.25 (≈ 0.485 µM) | 16 (≈ 31 µM) | 0.5 (≈ 0.97 µM) | 2 (≈ 3.88 µM) | 16 (≈ 31 µM) | 1 (≈ 1.94 µM) | 32 (≈ 62.1 µM) | 1 | 1 | 1 | – | –
3 | C[C@H]1[C@H](NC(=O)/C(=N\OCCOc2ccc(C(=N)NCCN)cc2)c2csc(N)n2)C(=O)N1OCS(=O)(=O)O [Example 77, {[(2S,3S)-3-{[(2Z)-2-[(2-{4-[N-(2-Aminoethyl)carbamimidoyl]phenoxy}ethoxy)imino]-2-(2-amino-1,3-thiazol-4-yl)acetyl]amino}-2-methyl-4-oxoazetidin-1-yl]oxy}methanesulfonic acid] | 0.5 (≈ 0.855 µM) | 2 (≈ 3.42 µM) | 2 (≈ 3.42 µM) | 0.5 (≈ 0.855 µM) | 2 (≈ 3.42 µM) | 8 (≈ 13.7 µM) | 16 (≈ 27.4 µM) | 8 (≈ 13.7 µM) | – | – | – | – | – | 0.5 (≈ 0.855 µM) | 16 (≈ 27.4 µM) | 1 | 1 | 1 | – | –
4 | CC1(C)[C@H](NC(=O)/C(=N\O[C@H](COc2ccc(C(=N)NCc3ncc[nH]3)cc2)C(=O)O)c2csc(N)n2)C(=O)N1OS(=O)(=O)O [Example 105, (2R)-2-({[(1Z)-1-(2-Amino-1,3-thiazol-4-yl)-2-{[(3S)-2,2-dimethyl-4-oxo-1-(sulfooxy)-azetidin-3-yl]amino}-2-oxoethylidene]amino}oxy)-3-{4-[N-(1H-imidazol-2-ylmeth-yl)carbamimidoyl]phenoxy}propanoic acid] | – | – | – | – | – | – | – | – | – | – | – | – | – | – | – | – | – | – | 16 | –
5 | CC1(C)[C@H](NC(=O)/C(=N\O[C@H](COc2ccc(C(=N)NCCNc3ncccn3)cc2)C(=O)O)c2csc(N)n2)C(=O)N1OS(=O)(=O)O [Example 111, (2R)-2-({[(1Z)-1-(2-Amino-1,3-thiazol-4-yl)-2-{[(3S)-2,2-dimethyl-4-oxo-1-(sulfooxy)-azetidin-3-yl]amino}-2-oxoethylidene]amino}oxy)-3-(4-{N-[2-(pyrimidin-2-ylamino)ethyl]carbamimidoyl}phenoxy)propanoic acid] | 8 (≈ 11.3 µM) | 8 (≈ 11.3 µM) | 16 (≈ 22.6 µM) | 4 (≈ 5.66 µM) | 8 (≈ 11.3 µM) | 32 (≈ 45.3 µM) | 32 (≈ 45.3 µM) | 32 (≈ 45.3 µM) | – | – | 0.25 (≈ 0.354 µM) | 2 (≈ 2.83 µM) | – | 16 (≈ 22.6 µM) | 32 (≈ 45.3 µM) | 8 | 8 | 8 | – | 32 (≈ 45.3 µM)
